Data on three compounds can be found in patent US9422238B2, “ICMT inhibitors” (National University of Singapore, priority 2012, dated 2016).

The structures appear in SMILES notation. Like-named read-outs stand apart in the source and are kept apart here.

Data set [1] in a line: Aggregation tendency by dynamic light scattering (DLS). Type of data set: physicochemical. The note with it: for DLS count rate (kcps): 1% DMSO, potassium phosphate buffer 5 mM pH 7.4. As for the experimental part: Stock solutions (10 mM) of test compounds prepared in DMSO, diluted to 1 mM with DMSO and then serially diluted with potassium phosphate buffer (5 mM, pH 7.4, prefiltered before use) to give final concentrations of 1 μM and 10 μM. Final concentration of DMSO was 1% v/v. Measurements were carried out on the Malvern Instrument Zetasizer Nano ZS system equipped with a 4 mW He—Ne laser at 633 nm and detector angle of 90°. Three or more determinations of derived count rates (kilocounts per second, kcps) were obtained from each concentration of test compound, using two separately prepared stock solutions. Data collection was carried out using the software supplied with the instrument. Results are represented as mean±standard deviation. The positive control was benzyl benzoate (250 μM) which gave a count rate of 1180 kcps (±35). The vehicle (phosphate buffer, 1% DMSO) gave a reading of 14.9±0.4.

The test system of data set [2] is Human hepatocellular carcinoma HepG2 cells. As to the kind of experiment: Cell viability (MTS, 72 h). Type of data set: cell-based. How it is done:
Cell viability was determined from the expression:
The plot was constrained to ≧0 and ≦100%.
Human hepatocellular carcinoma HepG2 and human pancreatic cancer MIA PACA II cells were obtained from ATCC (Rockville, Md.). They were grown in DMEM (high glucose, Invitrogen) supplemented with 10% FBS, 50 μg/mL penicillin and 50 μg/mL streptomycin, 37° C., 5% CO2 until they reached 80-90% confluency, after which they were subcultured. Passage numbers were kept within 7-14 passages for both cell types.

Data set [3] has as its system MDA-MB-231 human breast cells. As to the kind of experiment: Antiproliferative activity / cell viability (MTS, 72 h). The following applies: Homo sapiens.
Experimental: (§1) The relative number of the live cells was determined using the CellTiter® 96 AQueous One Solution Cell Proliferation Assay (Promega). Determinations were made in duplicates or triplicates.
Human breast cancer MDA-MB231, liver cancer HepG2 and lung fibroblast cells were purchased from ATCC (Rockville, Md.). MDA-MB231 cells and IMR-90 cells were grown in DMEM (Sigma Aldrich, Singapore) and EMEM (Sigma Aldrich, Singapore) respectively at 37° C., 5% CO2. DMEM was supplemented with 10% fetal bovine serum (Invitrogen, heat treated at 65 deg C., 30 min), 50 units/L penicillin-G and 50 μg/mL streptomycin. EMEM was supplemented with 10% fetal bovine serum (heat treated as above), 100 mg/L penicillin-G and 100 μg/mL streptomycin.
Cell viability was assessed using CellTitre 96® Aqueous One Solution (Promega, Madison, Wis.) containing the tetrazolium salt 3-(4,5-dimethylthiazol-2-yl)-5-(3-carboxymethoxyphenyl)-2-(4-sulfophenyl)-2H-tetrazolium (MTS). […] Final concentration of DMSO per well was maintained at 0.5% v/v. […] Cell viability was determined from the expression:
The plot was constrained to ≧0 and ≦100%. At least 3 independent determinations of IC50 were made using two different stock solutions of test compound.
Data set [4] has as its target T1, Isoprenylcysteine carboxyl methyltransferase (Icmt) (Homo sapiens, UniProt O60725).
T1 construct: made in house; host or cells: Sf9 (Spodoptera frugiperda) insect cells; membrane preparation provided by Prof PJ Casey (Duke University / Duke-NUS)
As to the kind of experiment: Icmt inhibition, scintillation proximity assay with BFC and [3H]SAM. Type of data set: biochemical. The note with it: for IC50: read-out: IC50 Icmt.

Data set [5] relates to PC3 Prostrate cancer cells. As to the kind of experiment: Antiproliferative activity / cell viability (MTS, 72 h). The format is cell-based, human. The following applies: Homo sapiens.
Experimental: as §1
Setting [6] is: HepG2, Table 6, mean (SD), read-out: IC50 (μM) HepG2.
Setting [7] is: HepG2, further testing, 72 h, mean (SD), read-out: IC50 HepG2.
The mark [8] stands for this setting: HepG2, read-out: in vitro IC50 (horizontal line in FIGS. 14 and 15), cell line not stated.
The mark [9] stands for this setting: MDA-MB-231, 72 h, read-out: IC50 MDA-MB-231 (μM).
[10] abbreviates: MDA-MB-231, 72 h, read-out: IC50MDA-MB-231 (μM).
The mark [11] stands for this setting: MDA-MB-231, read-out: IC50 (μM) MDA MB 231.
The mark [12] stands for this setting: Table 3, mean of two or more determinations (SD).
Setting [13] is: PC-3M, Table 3, 72 h, mean (SD), read-out: IC50 PC3.
Where [14] appears, read: Table 6, from earlier table, read-out: IC50 (μM) PC3.

T1 sequence (O60725 whole entry, species assumed): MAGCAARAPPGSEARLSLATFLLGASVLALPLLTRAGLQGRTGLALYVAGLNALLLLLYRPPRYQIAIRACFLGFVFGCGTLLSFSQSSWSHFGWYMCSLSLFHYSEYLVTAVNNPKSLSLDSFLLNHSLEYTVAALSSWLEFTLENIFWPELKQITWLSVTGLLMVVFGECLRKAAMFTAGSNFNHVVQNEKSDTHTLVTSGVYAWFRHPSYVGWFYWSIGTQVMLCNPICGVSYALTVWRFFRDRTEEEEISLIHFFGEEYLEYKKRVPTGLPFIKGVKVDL

As for `CCCCCCCCn1cc(CN(CC)CC)c2cc(-c3cnc(N)nc3)ccc21` [Compound 8-12, 5-(3-Diethylaminomethyl-1-octyl-1H-indol-5-yl)-pyrimidin-2-ylamine], the “DLS count rate (kcps)” value in data set [1] (1 μM) was 24.5 kcps; in data set [1] (10 μM), 53.3 kcps. In addition, the “fold increase in light scattering” value in data set [1] (concentration increased from 1 μM to 10 μM) turned out to be 2. Also, the IC50 is 1.65 µM in data set [2] (setting [6]); 1.65 µM in data set [2] (setting [7]); 1.7 µM in data set [2] (setting [8]); 2.48 µM in data set [3] (setting [9]); 2.63 µM in data set [3] (setting [10]); 2.63 µM in data set [3] (setting [11]). The IC50 came out at 780 nM in data set [4] (setting [12]); 860 nM in data set [4] (further testing, mean (SD)); 2.55 µM in data set [5] (setting [13]); 2.55 µM in data set [5] (setting [14]).
As to `CCCCCCCCn1c2c(c3cc(-c4cnc(N)nc4)ccc31)CN(C)CC2` [Compound 305, 8-(2′-amino-pyrimidin-5′-yl)-2-methyl-5-n-octyl-1,2,3,4-tetrahydropyrido[4,3-b]indole], the “DLS count rate (kcps)” value in data set [1] (1 μM) is listed as 21.0 kcps; in data set [1] (10 μM) it was 29.0 kcps. For the same compound, the IC50 in data set [2] (setting [7]) is 1.73 µM; in data set [3] (setting [9]) it was 5.65 µM; in data set [3] (setting [10]), 4.61 µM; in data set [4] (setting [12]) it was 3300 nM; in data set [5] (setting [13]), 4.31 µM. Moreover, in data set [4] (ratio of IC50 Icmt), the “fold higher IC50 Icmt than cysmethynil” value is reported as “about 2”.
Consider `CCCCCCCCn1cc(CC(N)=O)c2cc(-c3cccc(C)c3)ccc21` [Cysmethynil, 2-[5-(3-methylphenyl)-1-octyl-1H-indolo-3-yl]acetamide, reference compound], for which the “DLS count rate (kcps)” value came to 22.6 kcps in data set [1] (1 μM) and 164.0 kcps in data set [1] (10 μM). Besides, the IC50 in data set [2] (setting [6]) stood at 21.8 µM; in data set [2] (setting [7]), 21.8 µM; in data set [2] (setting [8]), 22 µM; in data set [3] (setting [9]), 27.4 µM; in data set [3] (setting [10]) it was 26.8 µM; in data set [3] (setting [11]), 27.4 µM. Moreover, the IC50 amounted to 1800 nM in data set [4] (setting [12]); 1900 nM in data set [4] (further testing, mean (SD)); 24.8 µM in data set [5] (setting [13]); 25.2 µM in data set [5] (setting [14]).
